IC50 data for 22 molecules are collected here from patent publication US11634447B2 (priority 2012, dated 2023).

The assay concerns bacterial strain LF82 binding to the glycoprotein BSA-(Mannose)3. The experiment in a line: Bacterial Binding Assay (BBA). It is filed as cell-based, Escherichia coli. Particulars: read-out: Bacterial Binding Assay IC50, LF82/Luciferase strain binding to BSA-(Man)3 coated plates, luminescence. The essentials:
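Inhibition of LF82/luciferase E. coli adhesion is read as luminescence after washing off unbound cells. Compound and bacteria (10^7 per well) are co-incubated 40-75 min at room temperature on wells coated with 0.5-2 μg/mL BSA-(Man)3, with BSA-only wells as background; IC50 values derived.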
In the case of `Cc1c(C#C[C@H]2O[C@H](CO)[C@@H](O)[C@H](O)[C@@H]2O)ccc(C#C[C@H]2O[C@H](CO)[C@@H](O)[C@H](O)[C@@H]2O)c1C` [Compound 99, (2R,3S,4R,5S,6R)-2-[2-[2,3-dimethy1-4-[2-[(2R,3S,4R,5S,6R)-3,4,5-trihydroxy-6-(hydroxymethyl)tetrahydropyran-2-yl]ethynyl]phenyl]ethynyl]-6-(hydroxymethyl)tetrahydropyran-3,4,5-triol], the IC50 is 145 nM.

`Cc1cc(C2CC2c2ccc([C@H]3O[C@H](CO)[C@@H](O)[C@H](O)[C@@H]3O)c(C)c2)ccc1[C@H]1O[C@H](CO)[C@@H](O)[C@H](O)[C@@H]1O` (stereo partly drawn) [Compound 160, (2R,3S,4R,5S,6R)-2-(hydroxymethyl)-6-[2-methyl-4-[2-[3-methyl-4-[(2R,3S,4R,5S,6R)-3,4,5-trihydroxy-6-(hydroxymethyl)tetrahydropyran-2-yl]phenyl]cyclopropyl]phenyl]tetrahydropyran-3,4,5-triol]: the IC50 came out at 17 nM.

`OC[C@H]1O[C@H](C#Cc2cc(F)c(C#C[C@H]3O[C@H](CO)[C@@H](O)[C@H](O)[C@@H]3O)cc2F)[C@@H](O)[C@@H](O)[C@@H]1O` [Compound 88, (2R,3S,4R,5S,6R)-2-[2-[2,5-difluoro-4-[2-[(2R,3S,4R,5S,6R)-3,4,5-trihydroxy-6-(hydroxymethyl)tetrahydropyran-2-yl]ethynyl]phenyl]ethynyl]-6-(hydroxymethyl)tetrahydropyran-3,4,5-triol]: the IC50 amounted to 132 nM. The result for `OC[C@H]1O[C@H](C#Cc2ccc3c(c2)CCc2cc(C#C[C@H]4O[C@H](CO)[C@@H](O)[C@H](O)[C@@H]4O)ccc2-3)[C@@H](O)[C@@H](O)[C@@H]1O` [Compound 117, (2R,3S,4R,5S,6R)-2-(hydroxymethyl)-6-[2-[7-[2-[(2R,3S,4R,5S,6R)-3,4,5-trihydroxy-6-(hydroxymethyl)tetrahydropyran-2-yl]ethynyl]-9,10-dihydrophenanthren-2-yl]ethynyl]tetrahydropyran-3,4,5-triol] reads 23 nM; that for `Cn1cc(C(=O)c2c(C#C[C@H]3O[C@H](CO)[C@@H](O)[C@H](O)[C@@H]3O)ccc3c2C2(CCNCC2)c2cc(C#C[C@H]4O[C@H](CO)[C@@H](O)[C@H](O)[C@@H]4O)ccc2-3)cn1` [Compound 245, [2,7-bis[2-[(2R,3S,4R,5S,6R)-3,4,5-trihydroxy-6-(hydroxymethyl)tetrahydropyran-2-yl]ethynyl]spiro[fluorene-9,4piperidine]-1yl]-(1-methylpyrazol-4-yl)methanone], 0.14 nM. To `COc1cccc(C2(O)c3cc(C#C[C@H]4O[C@H](CO)[C@@H](O)[C@H](O)[C@@H]4O)ccc3-c3ccc(C#C[C@H]4O[C@H](CO)[C@@H](O)[C@H](O)[C@@H]4O)cc32)c1` [Compound 170, (2R,3S,4R,5S,6R)-2-[2-[9-hydroxy-9-(3-methoxyphenyl)-7-[2-[(2R,3S,4R,5S,6R)-3,4,5-trihydroxy-6-(hydroxymethyl)tetrahydropyran-2-yl]ethynyl]fluoren-2-yl]ethynyl]-6-(hydroxymethyl)tetrahydropyran-3,4,5-triol] belongs 7.5 nM.

`O=C(Cn1c2cc(C#C[C@H]3O[C@H](CO)[C@@H](O)[C@H](O)[C@@H]3O)ccc2c2ccc(C#C[C@H]3O[C@H](CO)[C@@H](O)[C@H](O)[C@@H]3O)cc21)N1CCOCC1` [Compound 180, 2-[2,7-bis[2-[(2R,3S,4R,5S,6R)-3,4,5-trihydroxy-6-(hydroxymethyl)tetrahydropyran-2-yl]ethynyl]carbazol-9-yl]-1-morpholino-ethanone]: the IC50 was 5.5 nM.

Regarding `CCn1c2ccc(C#C[C@H]3O[C@H](CO)[C@@H](O)[C@H](O)[C@@H]3O)cc2c2cc(C#C[C@H]3O[C@H](CO)[C@@H](O)[C@H](O)[C@@H]3O)ccc21` [Compound 107, (2R,3S,4R,5S,6R)-2-[2-[9-ethyl-6-[2-[(2R,3S,4R,5S,6R)-3,4,5-trihydroxy-6-(hydroxymethyl)tetrahydropyran-2-yl]ethynyl]carbazol-3-yl]ethynyl]-6-(hydroxymethyl)tetrahydropyran-3,4,5-triol], the IC50 turned out to be 13 nM. With `CN(C)CC(=O)c1c(C#C[C@H]2O[C@H](CO)[C@@H](O)[C@H](O)[C@@H]2O)ccc2c1C1(CCNCC1)c1cc(C#C[C@H]3O[C@H](CO)[C@@H](O)[C@H](O)[C@@H]3O)ccc1-2` [Compound 222, 1-[2,7-bis[2-[(2R,3S,4R,5S,6R)-3,4,5-trihydroxy-6-(hydroxymethyl)tetrahydropyran-2-yl]ethynyl]spiro[fluorene-9,4piperidine]-1yl]-2-(dimethylamino)ethanone], the IC50 amounted to 0.08 nM. The result for `CC(C)C1(O)c2cc(C#C[C@H]3O[C@H](CO)[C@@H](O)[C@H](O)[C@@H]3O)ccc2-c2ccc(C#C[C@H]3O[C@H](CO)[C@@H](O)[C@H](O)[C@@H]3O)cc21` [Compound 165, (2R,3S,4R,5S,6R)-2-[2-[9-hydroxy-9-isopropyl-7[2-[(2R,3S,4R,5S,6R)-3,4,5-trihydroxy-6-(hydroxymethyl)tetrahydropyran-2-yl]ethynyl]fluoren-2-yl]ethynyl]-6-(hydroxymethyl)tetrahydropyran-3,4,5-triol] reads 2.4 nM; that for `CC(C)(C#N)c1cc(C#C[C@H]2O[C@H](CO)[C@@H](O)[C@H](O)[C@@H]2O)ccc1C#C[C@H]1O[C@H](CO)[C@@H](O)[C@H](O)[C@@H]1O` [Compound 70], 15 nM. As for `Cc1cc([C@H]2O[C@H](CO)[C@@H](O)[C@H](O)[C@@H]2O)ccc1-c1ccc([C@H]2O[C@H](CO)[C@@H](O)[C@H](O)[C@@H]2O)cc1` [Compound 63], the IC50 amounted to 112 nM. As to `CN1CCC(Cn2c3cc(C#C[C@H]4O[C@H](CO)[C@@H](O)[C@H](O)[C@@H]4O)ccc3c3ccc(C#C[C@H]4O[C@H](CO)[C@@H](O)[C@H](O)[C@@H]4O)cc32)CC1` [Compound 188, (2R,3S,4R,5S,6R)-2-(hydroxymethyl)-6-[2-[9-[(1-methyl-4-piperidyl)methyl]-7-[2-[(2R,3S,4R,5S,6R)-3,4,5-trihydroxy-6-(hydroxymethyl)tetrahydropyran-2-yl]ethynyl]carbazol-2-yl]ethynyl]tetrahydropyran-3,4,5-triol], the IC50 worked out at 4.3 nM. On to `CC(C)(C)C(=O)N1CCC2(CC1)c1cc(C#C[C@H]3O[C@H](CO)[C@@H](O)[C@H](O)[C@@H]3O)ccc1-c1ccc(C#C[C@H]3O[C@H](CO)[C@@H](O)[C@H](O)[C@@H]3O)cc12` [Compound 228, 1-[2,7-bis[2-[(2R,3S,4R,5S,6R)-3,4,5-trihydroxy-6-(hydroxymethyl)tetrahydropyran-2-yl]ethynyl]spiro[fluorene-9,4piperidine]-1yl]-2,2-dimethyl-propan-l-one], for which the IC50 amounted to 0.44 nM.

As to `NC(=O)CCC(=O)c1c(C#C[C@H]2O[C@H](CO)[C@@H](O)[C@H](O)[C@@H]2O)ccc2c1C1(CCNCC1)c1cc(C#C[C@H]3O[C@H](CO)[C@@H](O)[C@H](O)[C@@H]3O)ccc1-2` [Compound 234, 4-[2,7-bis[2-[(2R,3S,4R,5S,6R)-3,4,5-trihydroxy-6-(hydroxymethyl)tetrahydropyran-2-yl]ethynyl]spiro[fluorene-9,4piperidine]-1yl]-4-oxo-butanamide], the IC50 was found to be 0.04 nM. The result for `CCCn1c2cc(C#C[C@H]3O[C@H](CO)[C@@H](O)[C@H](O)[C@@H]3O)ccc2c2ccc(C#C[C@H]3O[C@H](CO)[C@@H](O)[C@H](O)[C@@H]3O)cc21` [Compound 110, (2R,3S,4R,5S,6R)-2-(hydroxymethyl)-6-[2-[9-propyl-7-[2-[(2R,3S,4R,5S,6R)-3,4,5-trihydroxy-6-(hydroxymethyl)tetrahydropyran-2-yl]ethynyl]carbazol-2-yl]ethynyl]tetrahydropyran-3,4,5-triol] reads 0.89 nM; that for `OC[C@H]1O[C@H](C#Cc2ccc(C#C[C@H]3O[C@H](CO)[C@@H](O)[C@H](O)[C@@H]3O)c3[nH]ncc23)[C@@H](O)[C@@H](O)[C@@H]1O` [Compound 171, (2R,3S,4R,5S,6R)-2-(hydroxymethyl)-6-[2-[7-[2-[(2R,3S,4R,5S,6R)-3,4,5-trihydroxy-6-(hydroxymethyl)tetrahydropyran-2-yl]ethynyl]-1H-indazol-4-yl]ethynyl]tetrahydropyran-3,4,5-triol], 13 nM. Consider `CC(=O)OCC1(COC(C)=O)c2cc(C#C[C@H]3O[C@H](CO)[C@@H](O)[C@H](O)[C@@H]3O)ccc2-c2ccc(C#C[C@H]3O[C@H](CO)[C@@H](O)[C@H](O)[C@@H]3O)cc21` [Compound 211, [9-(acetoxymethyl)-2,7-bis[2-[(2R,3S,4R,5S,6R)-3,4,5-trihydroxy-6-(hydroxymethyl)tetrahydropyran-2-yl]ethynyl]fluoren-9-yl]methyl acetate], for which the IC50 came to 2.2 nM. For `Cc1cc(N2CC(=O)N(c3ccc([C@H]4O[C@H](CO)[C@@H](O)[C@H](O)[C@@H]4O)c(C)c3)CC2=O)ccc1[C@H]1O[C@H](CO)[C@@H](O)[C@H](O)[C@@H]1O` [Compound 172, 1,4-bis[3-methyl-4-[(2R,3S,4R,5S,6R)-3,4,5-trihydroxy-6-(hydroxymethyl)tetrahydropyran-2-yl]phenyl]piperazine-2,5-dione], the IC50 is 188 nM. As to `Cc1cc(-c2ccc([C@H]3O[C@H](CO)[C@@H](O)[C@H](O)[C@@H]3O)c(C)c2)ccc1[C@H]1O[C@H](CO)[C@@H](O)[C@H](O)[C@@H]1O` [Compound 68], the IC50 was found to be 7.7 nM.

`OC[C@H]1O[C@H](C#Cc2ccc3c(c2)C2(CCCCO2)c2cc(C#C[C@H]4O[C@H](CO)[C@@H](O)[C@H](O)[C@@H]4O)ccc2-3)[C@@H](O)[C@@H](O)[C@@H]1O` (stereo partly shown) [Compound 199]: the IC50 was 0.21 nM. Take `CN1CCC(n2c3cc(C#C[C@H]4O[C@H](CO)[C@@H](O)[C@H](O)[C@@H]4O)ccc3c3ccc(C#C[C@H]4O[C@H](CO)[C@@H](O)[C@H](O)[C@@H]4O)cc32)CC1` [Compound 187, (2R,3S,4R,5S,6R)-2-(hydroxymethyl)-6-[2-[9-(1-methyl-4-piperidyl)-7-[2-[(2R,3S,4R,5S,6R)-3,4,5-trihydroxy-6-(hydroxymethyl)tetrahydropyran-2-yl]ethynyl]carbazol-2-yl]ethynyl]tetrahydropyran-3,4,5-triol]: the IC50 was found to be 1 nM.
